Laboratory results reported in patent US11738097B2, “Curcuminoid chemotherapeutic drug carrier composition” (Imam Abdulrahman Bin Faisal University, priority 2018, dated 2023).

Tests used:
MCF7 cells = assay: Cell viability MTT assay; type: cell-based, human; settings: 10, 20, 40, 80, 100 μg/ml, 24 h
Method: (§1) Materials and Methods/Cell cultures: In this study, a human mammary adenocarcinoma cell line, MCF7, was used for in vitro testing. MCF7 cells were maintained in DMEM (Dulbecco's Modified Eagle Medium) (Gibco, life technologies) supplemented with 10% heat inactivated fetal bovine serum (HI-FBS) (Gibco, life technology), 1% Penicillin Streptomycin (100×-Gibco, life technology), and 1% MEM NEAA (MEM non-essential amino acids) (100×-Gibco, life technology). Cells were kept in a humidified incubator at 37° C. with 5% CO2. For the experimental setup, MCF7 cells were seeded on a 96-well plate at a density of 10,000 cells/well. On the next day, cells were shifted to the starve media (0.5% HI-FBS containing media) for 24 h before treatment. […]
(§2) Cell viability MTT Assay: The viability of cells was tested using 3-(4,5-dimethylthiazol-2-yl)-2,5-diphenyltetrazolium bromide (MTT) assay. […] The change in color intensity was measured at 570 nm wavelength using SYNERGY-neo2 BioTek ELISA reader. […] The reading of each triplicate was averaged and subtracted from the averaged MTT background control reading. […]
(§3) To investigate the cytotoxic effects of curcumin-loaded/Fe2O3 impregnated mesocellular foam silica nanoparticles, the inventors assessed cell viability using the MTT assay on MCF7 cells. […]

Cell viability MTT assay = type: cell-based, human; settings: human, MCF7 cells, maintained throughout the different concentrations (10-100 μg/ml), curcumin stock 390 μg/ml
Method: as §1, §2, §3

In the case of `COc1cc(/C=C/C(=O)CC(=O)/C=C/c2ccc(O)c(OC)c2)ccc1O` [Curcumin], the “effect on cell viability (in words)” value (MCF7 cells) was “significantly reduced cell viability” and the viability at 24 h (Cell viability MTT assay) was 66.6%.
